# Test results taken from ChEMBL document CHEMBL3885881, “DrugMatrix”.
# Species: Rattus norvegicus
# Assay: DrugMatrix - Regimen: Daily Repeat
# Type: toxicity, organism-based, Sprague-Dawley
# Parameters: regimen Daily Repeat, gender Male, age 6-8 weeks
# Conditions: in vivo, po, route oral GAVAGE, vehicle 100 % SALINE; for ABSOLUTE BASOPHIL / ABSOLUTE EOSINOPHIL / ABSOLUTE LYMPHOCYTE / ABSOLUTE MONOCYTE / ABSOLUTE SEGMENTED NEUTROPHIL / BASOPHIL / EOSINOPHIL / ERYTHROCYTE COUNT / HEMATOCRIT / HEMOGLOBIN / LEUKOCYTE COUNT / LYMPHOCYTE / MEAN CORPUSCULAR HEMOGLOBIN / MEAN CORPUSCULAR HEMOGLOBIN CONCENTRATION / MEAN CORPUSCULAR VOLUME / MONOCYTE / NEUTROPHIL / NUCLEATED RED BLOOD CELLS / PLATELET COUNT: tissue Blood; for ALANINE AMINOTRANSFERASE / ALBUMIN / ALKALINE PHOSPHATASE / ASPARTATE AMINOTRANSFERASE / BLOOD UREA NITROGEN / CARBON DIOXIDE / CHLORIDE / CHOLESTEROL / CREATINE PHOSPHOKINASE / CREATININE / GLUCOSE / LACTATE DEHYDROGENASE / LIPASE / PHOSPHORUS / POTASSIUM / SODIUM / TOTAL BILIRUBIN / TOTAL PROTEIN / URIC ACID: tissue Plasma
# [1] = 11 mg/kg, 120 h, dose level High, time 5 day
# [2] = […], 72 h, dose 2.8 mg/Kg, dose level Low, time 3 day
# [3] = […], 120 h, dose 2.8 mg/Kg, dose level Low, time 5 day
compound,measurement,setting,value
Cc1cc(CC(=O)O)n(C)c1C(=O)c1ccc(Cl)cc1 [ZOMEPIRAC],ABSOLUTE BASOPHIL,[1],0 CELLS/uL
same,ABSOLUTE EOSINOPHIL,[1],95 CELLS/uL
same,ABSOLUTE LYMPHOCYTE,[1],12621.33 CELLS/uL
same,ABSOLUTE MONOCYTE,[1],94.67 CELLS/uL
same,ABSOLUTE SEGMENTED NEUTROPHIL,[1],855.67 CELLS/uL
same,BASOPHIL,[1],0%
same,EOSINOPHIL,[1],0.67%
same,ERYTHROCYTE COUNT,[1],5.5 x10E6/uL
same,HEMATOCRIT,[1],34.03%
same,HEMOGLOBIN,[1],13.2 G/DL
same,LEUKOCYTE COUNT,[1],13.67 x10E3/uL
same,LYMPHOCYTE,[1],92.33%
same,MEAN CORPUSCULAR HEMOGLOBIN,[1],24.13 pg
same,MEAN CORPUSCULAR HEMOGLOBIN CONCENTRATION,[1],38.87 G/DL
same,MEAN CORPUSCULAR VOLUME,[1],62.1 fL
same,MONOCYTE,[1],0.67%
same,NEUTROPHIL,[1],6.33%
same,NUCLEATED RED BLOOD CELLS,[1],0 /100WBC
same,PLATELET COUNT,[1],1240 x10E3/uL
same,ALANINE AMINOTRANSFERASE,[1],49.33 u/L
same,ALBUMIN,[1],3.77 G/DL
same,ALKALINE PHOSPHATASE,[1],252.67 u/L
same,ASPARTATE AMINOTRANSFERASE,[1],97.67 u/L
same,BLOOD UREA NITROGEN,[1],15.67 mg/dL
same,CARBON DIOXIDE,[1],24 mmol/L
same,CHLORIDE,[1],105.33 MEQ/L
same,CHOLESTEROL,[1],76.67 mg/dL
same,CREATINE PHOSPHOKINASE,[1],395.67 u/L
same,CREATININE,[1],0.17 mg/dL
same,GLUCOSE,[1],143.33 mg/dL
same,LACTATE DEHYDROGENASE,[1],595 u/L
same,LIPASE,[1],8.67 u/L
same,PHOSPHORUS,[1],11.83 mg/dL
same,POTASSIUM,[1],6.93 MEQ/L
same,SODIUM,[1],148.57 MEQ/L
same,TOTAL BILIRUBIN,[1],0.13 mg/dL
same,TOTAL PROTEIN,[1],5.87 G/DL
same,URIC ACID,[1],2.33 mg/dL
same,ABSOLUTE BASOPHIL,[2],0 CELLS/uL
same,ABSOLUTE EOSINOPHIL,[2],111.67 CELLS/uL
same,ABSOLUTE LYMPHOCYTE,[2],15209 CELLS/uL
same,ABSOLUTE MONOCYTE,[2],151.67 CELLS/uL
same,ABSOLUTE SEGMENTED NEUTROPHIL,[2],1061 CELLS/uL
same,BASOPHIL,[2],0%
same,EOSINOPHIL,[2],0.67%
same,ERYTHROCYTE COUNT,[2],5.59 x10E6/uL
same,HEMATOCRIT,[2],34.1%
same,HEMOGLOBIN,[2],13.53 G/DL
same,LEUKOCYTE COUNT,[2],16.53 x10E3/uL
same,LYMPHOCYTE,[2],91.33%
same,MEAN CORPUSCULAR HEMOGLOBIN,[2],24.2 pg
same,MEAN CORPUSCULAR HEMOGLOBIN CONCENTRATION,[2],39.7 G/DL
same,MEAN CORPUSCULAR VOLUME,[2],60.97 fL
same,MONOCYTE,[2],1%
same,NEUTROPHIL,[2],7%
same,NUCLEATED RED BLOOD CELLS,[2],0 /100WBC
same,PLATELET COUNT,[2],1145.33 x10E3/uL
same,ALANINE AMINOTRANSFERASE,[2],50.67 u/L
same,ALBUMIN,[2],4 G/DL
same,ALKALINE PHOSPHATASE,[2],259 u/L
same,ASPARTATE AMINOTRANSFERASE,[2],76.67 u/L
same,BLOOD UREA NITROGEN,[2],14.67 mg/dL
same,CARBON DIOXIDE,[2],23 mmol/L
same,CHLORIDE,[2],102 MEQ/L
same,CHOLESTEROL,[2],65.33 mg/dL
same,CREATINE PHOSPHOKINASE,[2],362.33 u/L
same,CREATININE,[2],0.2 mg/dL
same,GLUCOSE,[2],180 mg/dL
same,LACTATE DEHYDROGENASE,[2],137 u/L
same,LIPASE,[2],12.33 u/L
same,PHOSPHORUS,[2],13.07 mg/dL
same,POTASSIUM,[2],6.11 MEQ/L
same,SODIUM,[2],141.93 MEQ/L
same,TOTAL BILIRUBIN,[2],0.2 mg/dL
same,TOTAL PROTEIN,[2],5.77 G/DL
same,URIC ACID,[2],1.6 mg/dL
same,ABSOLUTE BASOPHIL,[3],0 CELLS/uL
same,ABSOLUTE EOSINOPHIL,[3],70.67 CELLS/uL
same,ABSOLUTE LYMPHOCYTE,[3],13627.67 CELLS/uL
same,ABSOLUTE MONOCYTE,[3],0 CELLS/uL
same,ABSOLUTE SEGMENTED NEUTROPHIL,[3],1235 CELLS/uL
same,BASOPHIL,[3],0%
same,EOSINOPHIL,[3],0.33%
same,ERYTHROCYTE COUNT,[3],5.81 x10E6/uL
same,HEMATOCRIT,[3],35.67%
same,HEMOGLOBIN,[3],14.07 G/DL
same,LEUKOCYTE COUNT,[3],14.93 x10E3/uL
same,LYMPHOCYTE,[3],91.33%
same,MEAN CORPUSCULAR HEMOGLOBIN,[3],24.23 pg
same,MEAN CORPUSCULAR HEMOGLOBIN CONCENTRATION,[3],39.47 G/DL
same,MEAN CORPUSCULAR VOLUME,[3],61.53 fL
same,MONOCYTE,[3],0%
same,NEUTROPHIL,[3],8.33%
same,NUCLEATED RED BLOOD CELLS,[3],0 /100WBC
same,PLATELET COUNT,[3],1274.67 x10E3/uL
same,ALANINE AMINOTRANSFERASE,[3],59.33 u/L
same,ALBUMIN,[3],4.17 G/DL
same,ALKALINE PHOSPHATASE,[3],331 u/L
same,ASPARTATE AMINOTRANSFERASE,[3],103.33 u/L
same,BLOOD UREA NITROGEN,[3],16.33 mg/dL
same,CARBON DIOXIDE,[3],22.67 mmol/L
same,CHLORIDE,[3],104.67 MEQ/L
same,CHOLESTEROL,[3],64.33 mg/dL
same,CREATINE PHOSPHOKINASE,[3],532.33 u/L
same,CREATININE,[3],0.2 mg/dL
same,GLUCOSE,[3],159.67 mg/dL
same,LACTATE DEHYDROGENASE,[3],749.67 u/L
same,LIPASE,[3],10 u/L
same,PHOSPHORUS,[3],12.53 mg/dL
same,POTASSIUM,[3],6.9 MEQ/L
same,SODIUM,[3],147.37 MEQ/L
same,TOTAL BILIRUBIN,[3],0.2 mg/dL
same,TOTAL PROTEIN,[3],6.2 G/DL
same,URIC ACID,[3],2 mg/dL
